According to patent US7981930B2, “Compositions and kits for treating influenza” (Adamas Pharmaceuticals, Inc., priority 2007, dated 2011):
In brackets after ≈: the same amount, converted by molar mass. Where two headings read alike, the source gives them in different places.

Tests used:
[1] = system: A/Sydney/05/97 H3N2 virus; assay type: cell-based; settings: for increase in sensitivity of the virus to the drug in triple combination compared to monotherapy: drug used with the two other drugs vs. monotherapy; for concentration range at which synergy was seen: drugs in combination, MDCK 96-well
[2] = system: wild type A/Albany (H3N2) strain; test: Hollow fiber system, MDCK cells, continuous infusion 168 hours, viral titer and sequencing; assay type: cell-based, Influenza A virus (H3N2); settings: for effect on viral titer: drug alone at low dose (amantadine 0.1 μg/mL; ribavirin 0.5 μg/mL); for concentrations at which the triple combination demonstrated synergism: hollow fiber, steady-state infusion
[3] = system: A/Victoria/3/75 (H3N2) virus; test: Mouse model of influenza infection, treatment initiated 24 or 48 hours after infection (Example 3B); assay type: in vivo, mice; settings: for weight loss: day 9
A/Albany/1/98 (H3N2) = test: microbe, parasite or virus in culture; assay type: cell-based; settings: for EC50: Influenza A virus, H3N2, MDCK; for EC25, Target serum C: molar equivalent of in vitro EC25; for EC75, Target serum C: molar equivalent of in vitro EC75; for EC25, In vitro C / EC75, In vitro C: MDCK cells in flasks, virus reduction at 72 hrs
[4] = system: A/Victoria/3/75 (H3N2) virus; test: Mouse model of influenza infection, treatment started before infection (Example 3A); assay type: in vivo, mice
[5] = system: Influenza A/Victoria/3/75 (H3N2) virus; test: In vitro kinetic assay of mono and combination therapy in MDCK and SIAT-1 cells (viral load by CCID50, CPE scoring); assay type: cell-based
[6] = drug alone at high dose (amantadine 1.0 μg/mL; ribavirin 5 μg/mL), 48 hours
[7] = treatment initiated 48 hours after infection
[8] = molar equivalent of in vitro EC50, read-out: EC50, Target serum C
[9] = monotherapy, concentration of drug that reduces 50% of the virus at 72 hrs, read-out: EC50, In vitro C
[10] = amantadine 3 mg/ml, oseltamivir 10 or 30 mg/kg/day, ribavirin 7 or 21 mg/kg/day, monotherapy

Compound | increase in sensitivity of the virus to the drug in triple combination compared to monotherapy [1] | concentration range at which synergy was seen [1] [µg/mL] | reduction in titer [2, 6] | effect on viral titer [2] | concentrations at which the triple combination demonstrated synergism [2] [µg/mL] | weight loss [3, 7] | EC50 (A/Albany/1/98 (H3N2); [8]) [nM] | EC50 (A/Albany/1/98 (H3N2); [9]) [ng/mL] | EC25, Target serum C (A/Albany/1/98 (H3N2)) [nM] | EC75, Target serum C (A/Albany/1/98 (H3N2)) [nM] | EC25, In vitro C (A/Albany/1/98 (H3N2); monotherapy) [ng/mL] | EC75, In vitro C (A/Albany/1/98 (H3N2); monotherapy) [ng/mL] | weight loss during the infection [4, 10] | times to death ([4]; mouse, in vivo) | other results
NC(=O)c1ncn([C@@H]2O[C@H](CO)[C@@H](O)[C@H]2O)n1 [Ribavirin] | 100 fold | 0.032 to 1.0 | ~3 log | negligible effect | 0.5 to 5 | about 26% | 1030 | 420 | 760 | 1500 | 310 (≈ 1270 nM) | 615 (≈ 2520 nM) | more substantial | significantly increased | reduction in viral load ([1]; ribavirin monotherapy at 1 μg/ml): approximately 10%; reduction in viral load ([1]; ribavirin monotherapy at 3.2 μg/ml): ~95%; weight as percent of original weight ([3]; treatment initiated 48 hours after infection, day 13): approximately 80%
CCOC(=O)C1=C[C@@H](OC(CC)CC)[C@H](NC(C)=O)[C@@H](N)C1 [Oseltamivir] | over 100 fold | 0.001 to 0.032 | – | – | 0.001 to 0.01 | ~35% | – | – | 0.080 | 0.240 | 0.025 (≈ 0.08 nM) | 0.075 (≈ 0.24 nM) | more substantial | – | reduction in viral load ([1]; oseltamivir monotherapy at 0.1 μg/ml): ~50%; reduction in titer ([2]; oseltamivir alone, both doses (1 and 10 ng/mL)): ~1 log; mortality (UK/EU mortality criteria) ([3]; treatment initiated 24 hours after infection, by day 9, amantadine 28, oseltamivir 10 mg/kg/day): 100%; EC50 (A/Albany/1/98 (H3N2); 72 h, read-out: EC50, In vitro C): 0.05 ng/mL; EC50 (A/Albany/1/98 (H3N2); read-out: EC50, Target serum C): 0.16 nM; mice protected, UK/EU mortality criteria (death=20% weight loss) ([4]; oseltamivir 10 mg/kg/day, amantadine 3 mg/ml, ribavirin 7 mg/kg/day, as monotherapy or as triple combination at the same concentrations): 40%; survival benefit ([4]; oseltamivir monotherapy at 10 and 30 mg/kg/day oral gavage): 92-100%
NC12CC3CC(CC(C3)C1)C2 [Amantadine, 1-amino-adamantane] | 10 fold | 0.1 to 1 | 2-3 log | negligible effect | 0.1 to 1 | ~35% | 480 | 91 | 288 | 815 | 54 (≈ 357 nM) | 153 (≈ 1010 nM) | more substantial | significantly increased | reduction in viral load ([1]; amantadine monotherapy at 1 μg/ml): ~60%; time post infection until substantial cell death was seen [5]: 144 h; mortality (UK/EU mortality criteria) ([3]; mouse, in vivo): 100%; survival rate ([4]; amantadine 3 mg/ml by Alzet pump (4 mg/kg/day), 3 survivors out of 11): 27%; protection (survival) ([4]; amantadine 10 mg/ml by Alzet pump (13 mg/kg/day)): 92%; weight loss during the infection ([4]; amantadine 10 mg/ml monotherapy): minimal; mice protected, UK/EU mortality criteria (death=20% weight loss) ([4]; mouse, in vivo): 10%
